IC50 data for one compound are collected here from US20050159442A1, “Protein tyrosine phosphatase 1B (PTP-1B) inhibitors and methods of using the same” (priority 2003, published 2005).

The assay has as its target T1, human PTP-1B (Homo sapiens, UniProt P18031).
T1 construct: The fusion protein, which lacks the carboxyl terminus 35 amino acid residues of PTP-1B; made in house; host or cells: Escherichia coli (pGEX system)
T1 sequence (P18031 1-400 limits assumed): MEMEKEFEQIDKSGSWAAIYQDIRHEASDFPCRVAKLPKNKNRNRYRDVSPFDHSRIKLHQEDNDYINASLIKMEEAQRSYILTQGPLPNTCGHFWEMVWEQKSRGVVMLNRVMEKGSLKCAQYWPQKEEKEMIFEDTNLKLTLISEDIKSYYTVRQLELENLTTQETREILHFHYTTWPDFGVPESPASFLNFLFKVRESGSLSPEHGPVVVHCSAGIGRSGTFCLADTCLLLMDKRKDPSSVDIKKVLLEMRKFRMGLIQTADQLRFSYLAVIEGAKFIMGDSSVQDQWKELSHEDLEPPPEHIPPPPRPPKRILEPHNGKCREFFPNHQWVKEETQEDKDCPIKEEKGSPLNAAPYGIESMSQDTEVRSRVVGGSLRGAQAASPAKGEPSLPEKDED
Briefly: Assay for PTP-1B phosphatase activity (malachite green, phosphorylated insulin receptor peptide). It is filed as biochemical. Particulars: truncated human PTP-1B GST fusion protein, phosphorylated kinase domain of insulin receptor-1 as substrate, absorbance at 650 nm, read-out: IC50 of inhibition of PTP-1B phosphatase activity. On the procedure: PTP-1B phosphatase activity was measured as its ability to dephosphorylate a phosphorylated insulin receptor. In particular, a phosphorylated peptide derived from insulin receptor was used for the assay. The dephosphorylation reaction was monitored using a malachite green assay (Lanzetta et al., Anal Biochem. 1979, 100: 95-7), which measures the release of inorganic phosphate from the activated insulin receptor or the phosphorylated peptide derived from insulin receptor. A PTP-1B inhibitor decreases the yield of inorganic phosphate when it is added to the assay.
A substantially purified, soluble, truncated human PTP-1B GST fusion protein was used as the source of PTP-1B enzyme. […]
PTP-1B GST fusion protein (10 ng in 48 μl of assay buffer) was mixed with the phosphorylated kinase domain of insulin receptor-1 (70 μM in 201 μl of assay buffer) and the test compound (at desired concentration in 2 μl DMSO). […] After additional 30 minutes incubation at room temperature, the amount of inorganic phosphate released from the phosphorylated kinase domain of insulin receptor-1 in the reaction mixture was measured by the absorbance at 650 nm. […]

For orientation: IC50 means the concentration that gives 50% inhibition.

In the case of `Cc1ccc(CC/N=C2\N/C(=N\CCc3ccc(C)cc3)c3cnccc32)cc1` [Formula II, 1,3-Bis-(2-p-tolyl-ethylimino)-2,3-dihydro-1H-pyrrolo[3,4-c]pyridine], the half-maximal inhibitory concentration (IC50) stood at 910 nM.
